Where two headings read alike, the source gives them in different places. Residues, ends and D or L forms follow the SMILES beside them.
Experiments:
[1] = Peptide stability in human serum; assay type: in vitro ADME; conditions: male, human serum diluted with HBSS, 24 h, RP-HPLC; for half-life: human serum
Protocol: Nevertheless, peptides formed by L-amino acids have a short in vivo half-life in serum, which can reduce their potential bioactivity. The sensitivity of this peptide to proteases was tested at a concentration of 150 μM in HBSS/human serum 90:10 (v/v) for 24 h. At several time points, an aliquot was extracted, precipitated serum proteins with MeOH and then analyzed by RP-HPLC.
Peptides were dissolved in 1 mL of HBSS buffer/human serum (from human male AB plasma; Sigma-Aldrich) 10:90 (v/v) at a final concentration of 200 µM and incubated at 37 °C for 24 h. Aliquots of 50 µL were extracted at a range of incubation times and treated with 200 µL of cold CH3OH (4 °C) to precipitate serum proteins. After 30 min, samples were centrifuged at 13,000 g and 4 °C for 30 min. Supernatants were analyzed by RP-HPLC-PDA and MALDI-TOF MS, using similar procedures as for the quantification of the in vitro cell-based BBB model.

rat astrocytes [2] = assay: Internalization of Cf-labeled peptides by rat astrocytes (CLSM, flow cytometry); assay type: cell-based; conditions: for Internalization with respect to the parent version (HAI): 50 μM; for Internalization with respect to the parent version (HAI) / Internalization profile among candidates: 3 h, 37 °C; for Internalization profile among candidates: Cf-labeled peptides 50 μM (R8 15 μM)
Caco-2 cells [3] = assay: Caco-2 intestinal barrier model assay; conditions: for Caco-2 transport: Table 2; for Caco-2 transport / Caco-2 T (%): 2 h at 37 °C, HBSS, 50 μM, RP-HPLC; for Detection by MALDI-TOF MS in acceptor wells: Caco-2 assay, after 2 h; for Caco-2 T (%): Table 1
Protocol: (§2) In a subsequent step we evaluated the transport capacity of these peptides using two in vitro barrier models, namely in an intestine (Caco-2 assay)[41] and a BBB model[39],[40] […] In these models, two compartments are separated by a membrane containing a monolayer of endothelial cells which mimics either the intestinal barrier or the BBB. One compartment contains the peptide, which is incubated for 2 h. The amount of peptide in each compartment is then analyzed to determine apparent permeability (Papp, in cm/s) and transport (T, in %). The integrity of the compound in the acceptor compartment is assessed by mass spectrometry (MS).
(§3) The ability of peptides to overcome the intestinal barrier was tested using Caco-2 cells. […] Briefly, experiments were done with cells (passage between 60 and 80) seeded on 4.67 cm^2 filters at a density of 5.25·10^4 cell/cm^2. Peptides dissolved in HBSS were incubated for 2 h at a 50 μM concentration with cell layers at 37 °C and 5% CO2. After the experiment, the content of each compartment was directly analyzed by HPLC and then transport (in %) and Papp were determined.

[4] = system: bovine brain endothelial cells (BBECs); assay: Internalization of Cf-labeled peptides by BBECs (CLSM, flow cytometry); assay type: cell-based; conditions: for Internalization with respect to the parent version (HAI): 50 μM; for Internalization with respect to the parent version (HAI) / Internalization profile among candidates: 3 h, 37 °C; for Internalization profile among candidates: Cf-labeled peptides 50 μM (R8 15 μM)
[5] = system: in vitro bovine BBB model; assay: In vitro bovine BBB cell-based model assay; conditions: for BBB T (%): 200 μM, RP-HPLC
Protocol: (§4) In these models, two compartments are separated by a membrane containing a monolayer of endothelial cells which mimics either the intestinal barrier or the BBB. One compartment contains the peptide, which is incubated for 2 h. The amount of peptide in each compartment is then analyzed to determine apparent permeability (Papp, in cm/s) and transport (T, in %). The integrity of the compound in the acceptor compartment is assessed by mass spectrometry (MS).
(§5) This assay was an adapted model[10] of the method previously published by Gaillard and de Boer[52]. Briefly, TEER was measured in all transwells (TEER > 100 Ω·cm^2), before performing the assay. […] The apical compartment was filled with 200 μL of the solution containing the peptide, and 800 µL of Ringer-HEPES was poured into the basal well. Three replicates of each peptide were assayed. The plate was left for 2 h in the incubator at 37 °C. Finally, the samples were collected and analyzed or frozen until analysis. LY fluorescence was measured in a 96-well plate with a Fluoroskan Ascent Microplate Fluorometer (Thermo Fisher Scientific).
(§6) In vitro Transport of AuNPs in using a Bovine BBB Cell-Based Model Assay. To assess the
(§7) capacity of HAI to cross the BBB, this peptide was conjugated to AuNPs and then assay ed in an in
vitro BBB cell-based model.

[6] = In vitro bovine BBB cell-based model assay; conditions: BBB Papp, 200 μM, RP-HPLC; for Papp at 2 h, 200 μM: bovine
Protocol: as §4, §5, §6, §7
vitro BBB cell-based model.

[7] = system: bovine brain endothelial cells (BBECs); assay: MTT toxicity assay in BBECs; assay type: cell-based; conditions: 50 μM, 24 h
Protocol: (§1) The assay was performed in 96-well plates, adding 3,150 cells to each well in 100 μL (immortalized cell line –i.e. BBECs) or 7,000 cells in 100 μL (primary cultures –i.e. rat astrocytes), seeded 24 h before performing the experiment. Cells were incubated with each peptide at a range of concentrations (20, 50 and 500 μM) in cellular medium for 24 h at 37 °C and 5% CO2. After 22 h, MTT (3-(4,5-dimethylthiazol-2-yl)−2,5-diphenyltetrazolium bromide) was added to a final concentration of 0.5 mg/mL. The cells with peptides and MTT were incubated for further 2 h. The medium was then discarded and 200 μL of 2-propanol was added to each well to dissolve the purple formazan, product of the conversion of MTT by the mitochondrial enzyme […]. The plate was kept in an orbital shaker for 30 min (15 rpm) to ensure the complete dissolution of formazan. Finally, absorbance was measured at 570 nm and cell viability percentages were calculated dividing the absorbance value of cells treated with a given peptide by the absorbance value of untreated cells. Experiments for each peptide were carried out by triplicate. Cells incubated with 1% SDS were used as control of 0% viability (value subtracted to all samples before viability calculus per each peptide).

rat astrocytes [8] = assay: MTT toxicity assay in rat astrocytes; assay type: cell-based; conditions: 50 μM, 24 h
Protocol: as §1

[9] = Caco-2 intestinal barrier model assay; conditions: human, Caco-2
Protocol: as §2, §3

[10] = system: in vitro bovine BBB model
Protocol: as §4, §5, §6, §7
vitro BBB cell-based model.

Caco-2 cells [11] = system: Caco-2 cells
Protocol: as §2, §3

in vitro = conditions: bovine
Protocol: as §4, §5, §6, §7
vitro BBB cell-based model.

in vitro human BBB model = assay: In vitro human BBB cell-based model assay; assay type: in vitro ADME; conditions: 50, 250 and 1250 μM
Protocol: The discrepancy between internalization and transport of (NMe)HAI is probably due to an increase in lipophilicity after methylation of the backbone, thereby enhancing internalization by passive diffusion but not favoring the transcytosis. To ensure that rD-HAI crosses the BBB through active transport, we proceeded to test its mechanism of transport using a human model of the BBB.
This assay was performed using the model published by Cecchelli and co-workers[53]. Endothelial cells and pericytes were defrosted in gelatin-coated Petri dishes (Corning). Pericytes and endothelial cells were cultured in DMEM pH 6.8 or in supplemented endothelial cell growth medium (Sciencells), respectively. After 48 h, pericytes (50,000 cells/well) and endothelial cells (80,000 cells/well) were seeded in gelatin-coated 12-well plates or in Matrigel-coated 12-well Transwell inserts (Corning), respectively. Medium was changed every 2–3 days and assays were performed 7–8 days after seeding. […] […] Then, 500 µL of the compound and 1,500 µL of Ringer-HEPES alone were introduced in the apical or in the basolateral compartments, respectively. The plates were set on at 37 °C for 2 h. The solutions from both compartments were then recovered and quantified by HPLC and identified by MALDI-TOF.

CC[C@H](C)[C@@H](C(=O)N(C)[C@@H](Cc1ccc(O)cc1)C(=O)N1CCC[C@H]1C(=O)N[C@@H](CCCNC(=N)N)C(=O)N(C)[C@@H](Cc1c[nH]cn1)C(N)=O)N(C)C(=O)[C@H](C)NC(=O)[C@@H](N)Cc1c[nH]cn1 [(NMe)HAI, H-HA(NMe)I(NMe)YPR(NMe)H-NH2]
half-life [1]: > 1440 min
Internalization with respect to the parent version (HAI) (rat astrocytes [2]): two-fold increase in internalization
Caco-2 transport (Caco-2 cells [3]): 0.200 ± 0.003
Internalization with respect to the parent version (HAI) [4]: two-fold increase in internalization
BBB T (%) ([5]; Table 2, 2 h at 37 °C): 13.9 ± 1.6%
Papp at 2 h, 200 μM ([6]; Table 2, 2 h at 37 °C): 11.7 ± 1.3 ×10⁻⁶ cm/s

CC[C@H](C)[C@H](NC(=O)[C@H](C)NC(=O)[C@@H](N)Cc1c[nH]cn1)C(=O)N[C@@H](Cc1ccc(O)cc1)C(=O)N1CCC[C@H]1C(=O)N[C@@H](CCCNC(=N)N)C(=O)N[C@@H](Cc1c[nH]cn1)C(N)=O [HAI, H-HAIYPRH-NH2]
half-life at 150 μM ([1]; 150 μM in HBSS/human serum 90:10 (v/v)): ~5 min
Toxicity (MTT assay) [7]: not toxic
Internalization in presence of transferrin (Tf) (rat astrocytes [2]; Cf-HAI 50 μM, flow cytometry): promoted by the addition of Tf
Toxicity (MTT assay) (rat astrocytes [8]): not toxic
Detection by MALDI-TOF MS in acceptor wells (Caco-2 cells [3]): detected
Caco-2 T (%) (Caco-2 cells [3]): 0.7 ± 0.3%
Caco-2 transport (Caco-2 cells [3]): 0.7 ± 0.3
Papp at 2 h, 50 μM [9]: 0.0002 ± 8e-05 ×10⁻⁶ cm/s
Internalization in presence of transferrin (Tf) ([4]; Cf-HAI 50 μM, flow cytometry): promoted by the addition of Tf
Internalization at increasing concentrations of peptide ([4]; range of concentrations of Cf-HAI): saturation of internalization
BBB T (%) ([5]; Table 1, 2 h at 37 °C): 16 ± 3%
BBB T (%) ([5]; Table 2, 2 h at 37 °C): 10 ± 3%
Papp at 2 h, 200 μM ([6]; Table 1, 2 h at 37 °C): 18 ± 2 ×10⁻⁶ cm/s
Papp at 2 h, 200 μM ([6]; Table 2, 2 h at 37 °C): 9 ± 5 ×10⁻⁶ cm/s

N=C(N)NCCC[C@H](NC(=O)[C@H](CCCNC(=N)N)NC(=O)[C@H](CCCNC(=N)N)NC(=O)[C@H](CCCNC(=N)N)NC(=O)[C@H](CCCNC(=N)N)NC(=O)[C@H](CCCNC(=N)N)NC(=O)[C@H](CCCNC(=N)N)NC(=O)[C@@H](N)CCCNC(=N)N)C(=O)O [Peptide R8]
Internalization profile among candidates (rat astrocytes [2]): highest internalization profiles
Detection by MALDI-TOF MS in acceptor wells (Caco-2 cells [3]): detected
Caco-2 T (%) (Caco-2 cells [3]): 0%
Internalization profile among candidates [4]: highest internalization profiles
BBB T (%) ([5]; Table 1, 2 h at 37 °C): 0.68 ± 0.07%
Papp ([6]; Table 1, 2 h at 37 °C): 0.6 ± 0.06 ×10⁻⁶ cm/s

CC[C@H](C)[C@H](NC(=O)[C@H](CC(=O)O)NC(=O)[C@H](CS)NC(=O)[C@@H]1CCCN1C(=O)[C@@H](NC(=O)CNC(=O)[C@@H]1CCCN1C(=O)[C@H](CCCNC(=N)N)NC(=O)[C@@H]1CCCN1C(=O)[C@H](CC(N)=O)NC(=O)[C@H](CCC(=O)O)NC(=O)[C@@H]1CCCN1C(=O)[C@H](CCSC)NC(=O)[C@H](Cc1c[nH]c2ccccc12)NC(=O)[C@@H](NC(=O)[C@@H](NC(=O)[C@@H](N)Cc1ccc(O)cc1)[C@@H](C)O)[C@@H](C)CC)[C@@H](C)O)C(=O)N[C@@H](Cc1ccccc1)C(=O)N[C@H](C(=O)N[C@@H](CC(N)=O)C(=O)N[C@@H](CO)C(=O)N[C@@H](CCCNC(=N)N)C(=O)NCC(=O)N[C@@H](CCCCN)C(=O)N[C@@H](CCCNC(=N)N)C(=O)N[C@@H](C)C(=O)N[C@@H](CO)C(=O)N[C@@H](CC(N)=O)C(=O)NCC(=O)O)[C@@H](C)O [RVG]
BBB T (%) [10]: 0.29 ± 0.03%
Caco-2 Papp (Caco-2 cells [11]): 0 cm/s
Caco-2 T (%) (Caco-2 cells [11]): 0%
Papp (in vitro): 0.28 ± 0.02 ×10⁻⁶ cm/s

CC(C)C[C@H](NC(=O)[C@@H](N)C(C)C)C(=O)N[C@@H](CCCNC(=N)N)C(=O)N1CCC[C@H]1C(=O)N1CCC[C@H]1C(=O)N1CCC[C@H]1C(=O)N[C@H](C(=O)N[C@@H](CC(C)C)C(=O)N[C@@H](CCCNC(=N)N)C(=O)N1CCC[C@H]1C(=O)N1CCC[C@H]1C(=O)N1CCC[C@H]1C(=O)N[C@H](C(=O)N[C@@H](CC(C)C)C(=O)N[C@@H](CCCNC(=N)N)C(=O)N1CCC[C@H]1C(=O)N1CCC[C@H]1C(=O)N1CCC[C@H]1C(=O)O)C(C)C)C(C)C [SAP, H-(VLRPPP)3-OH] (H-VLRPPPVLRPPPVLRPPP-OH)
Caco-2 T (%) (Caco-2 cells [3]): 0%
BBB T (%) ([5]; Table 1, 2 h at 37 °C): 5 ± 3%
Papp at 2 h, 200 μM ([6]; Table 1, 2 h at 37 °C): 5.5 ± 1.5 ×10⁻⁶ cm/s

CC[C@@H](C)[C@@H](NC(=O)[C@@H](Cc1ccc(O)cc1)NC(=O)[C@H]1CCCN1C(=O)[C@@H](CCCNC(=N)N)NC(=O)[C@H](N)Cc1c[nH]cn1)C(=O)N[C@H](C)C(=O)N[C@H](Cc1c[nH]cn1)C(N)=O [rD-HAI, H-hrpyiah-NH2]
half-life [1]: > 1440 min
Internalization with respect to the parent version (HAI) (rat astrocytes [2]): maintained the internalization rate
Caco-2 transport (Caco-2 cells [3]): 0.4 ± 0.3
Papp at 2 h, 50 μM [9]: 0.00012 ± 0.0001 ×10⁻⁶ cm/s
Internalization with respect to the parent version (HAI) [4]: maintained the internalization rate
BBB T (%) ([5]; Table 2, 2 h at 37 °C): 17 ± 3%
BBB transport rate relative to the parent version ([5]; vs HAI): around 1.5 times
Papp at 2 h, 200 μM ([6]; Table 2, 2 h at 37 °C): 14 ± 2 ×10⁻⁶ cm/s
Transport at increasing concentrations (in vitro human BBB model): saturation of transport

Penetratin
Internalization profile among candidates (rat astrocytes [2]): highest internalization profiles
Internalization profile among candidates [4]: highest internalization profiles

TAT: HIV TAT 48–57 peptide, derived from the transcriptional trans-activator protein of HIV-1; cell-penetrating peptide (GRKKRRQRRR; UniProt P04608 48-57, looked up, fragment)
Internalization profile among candidates (rat astrocytes [2]): highest internalization profiles
Caco-2 T (%) (Caco-2 cells [3]): 0%
Internalization profile among candidates [4]: highest internalization profiles
BBB T (%) ([5]; Table 1, 2 h at 37 °C): 0%
Detection by MALDI-TOF MS in acceptor wells ([5]; after 2 h): not detected
